Entries after “also recorded” stand apart in the source; their conditions may differ.
How the values were obtained:
[1] = tested on: Immortal, MORT(−) 184Dp16sMY HMEC; assay: Reversal of immortalization: lentiviral restoration of MORT expression in immortal HMEC; format: cell-based, human; conditions: qRT/PCR during MORT-mediated senescence
Method: Clontech's Tet-On® 3G system was used to construct lentiviral vectors that express 1) the MORT lncRNA sequence (MORT-Exact)(SEQ ID NO:8) and 2) an aberrant MORT lncRNA to which 60 nucleotides were added at the 5′ end of MORT that was predicted to disrupt RNA secondary structure rendering MORT either hypomorphic or completely nonfunctional (MORT-null). […] Immortal, MORT(−) 184Dp16sMY HMEC were either untreated or transduced with a lentivirus that expressed MORT-Exact, MORT-Null, or eGFP. Cells transduced with MORT-Exact cease growth and take on senescent phenotypes (FIG. 19A-19B).

[2] = MORT transcript half-life using actinomycin D treatment; format: cell-based; conditions: actinomycin D 1 μg/ml; c-MYC and GAPDH as reference genes
Method: FIG. 7 is a graph showing determination of MORT transcript half-life using actinomycin D (1 μg/ml) treatment. c-MYC was used as a short half-life reference gene and GAPDH was used as a long half-life reference gene. (Yang et al. 2003). […] The error bars show the SEM of 3 independent experiments.
(§1) The reverse transcription and real-time PCR was performed as previously described in Oshiro M M, Watts G S, Wozniak R J, Junk D J, Munoz-Rodriguez J L, Domann F E, Futscher B W. Mutant p53 and aberrant cytosine methylation cooperate to silence gene expression. Oncogene 2003; 22:3624-34 (reference 1 herein), and Vrba L, Junk D J, Novak P, Futscher B W. p53 induces distinct epigenetic states at its direct target promoters. BMC Genomics 2008; 9:486 (reference 41 herein), both incorporated herein by reference. Primers were designed for MORT, GAPDH, MYC and XIST and used with the Human Universal Probe Library Set (Roche Diagnostics). The cycle threshold (Ct) MORT values were normalized between the samples using GAPDH Ct values. The data were then converted into a value that is in log 2 scale, but increases with the expression level using formula 40-Ct. Since 40 was the total number of PCR cycles it was the lowest detectable expression level and therefore it was considered the background and set as 0 to display the data in the plots.

[3] = tested on: 184Dp16sMY HMEC; assay: 5-AdC treatment of immortalized MORT negative HMEC line 184Dp16sMY; format: cell-based, human; conditions: 96 h treatment, three concentrations of 5-AdC (FIG. 14)
Method: Finite and immortalized HMEC were generated and grown as previously described^1, 2, 32. […]. Retroviral transduction was performed as described^1, 2. Breast tumor lines MDA-MB231, MDA-MB453, and MCF7 were grown as previously described^33, 34. […]
as §1, with “plots. […]” for “plots.”

[4] = tested on: MDA-MB453; assay: 5-AdC treatment of MORT-negative breast tumor line MDA-MB453; format: cell-based, human; conditions: 1 μM 5-AdC for 96 h
Method: (§2) Finite and immortalized HMEC were generated and grown as previously described^1, 2, 32. […] […]. Retroviral transduction was performed as described^1, 2. Breast tumor lines MDA-MB231, MDA-MB453, and MCF7 were grown as previously described^33, 34.
(§3) Cells were treated with 1 μM 5-aza-2′-deoxycytidine (Sigma) for 96 h, as previously described^33.
(§4) DNA methylation analysis by MassARRAY. DNA methylation analysis by Sequenom MassARRAY (Sequenom) was performed as described^40. Primer sequences are provided in FIG. 18 and are SEQ ID NOs: 3, 4, 5, and 6. Oligonucleotides used for MassARRAY analysis were ordered from Integrated DNA Technologies. Two MassARRAY amplicons covered 800 bp region including the first MORT exon and about 500 bp upstream MORT transcription start (FIG. 4C). The mean DNA methylation of all 26 informative CpG units within MassARRAY amplicons was used for data presentation and statistical analysis.
(§5) The reverse transcription and real-time PCR was performed as previously described in Oshiro M M, Watts G S, Wozniak R J, Junk D J, Munoz-Rodriguez J L, Domann F E, Futscher B W. Mutant p53 and aberrant cytosine methylation cooperate to silence gene expression. Oncogene 2003; 22:3624-34 (reference 1 herein), and Vrba L, Junk D J, Novak P, Futscher B W. p53 induces distinct epigenetic states at its direct target promoters. […]

[5] = tested on: MCF7; assay: 5-AdC treatment of MORT-negative breast tumor line MCF7; format: cell-based, human; conditions: 1 μM 5-AdC for 96 h
Method: as §2, §3, §4, §5

[6] = tested on: MDA-MB231; assay: 5-AdC treatment of MORT-negative breast tumor line MDA-MB231; format: cell-based, human; conditions: 1 μM 5-AdC for 96 h
Method: as §2, §3, §4, §5

Compound | induced overexpression of p16 or p14 [1] | induction of p53 and p53 target genes MDM2, p21, PIG3, MASPIN [1] | MORT transcript half-life [2] | MORT transcription (transcript level) [3] | level of DNA methylation of the MORT promoter ([4]; Sequenom MassARRAY) | MORT expression (transcript level) ([4]; real-time PCR) | level of DNA methylation of the MORT promoter ([5]; Sequenom MassARRAY) | MORT expression (transcript level) ([5]; real-time PCR) | level of DNA methylation of the MORT promoter ([6]; Sequenom MassARRAY) | MORT expression (transcript level) ([6]; real-time PCR)
MORT: long non-coding RNA (lincRNA), 1.53 kb, ribonucleotide sequence SEQ ID NO:7 | not due to induced overexpression of p16 or p14 | neither p53 nor well-defined p53 target genes, MDM2, p21, PIG3, and MASPIN were induced | ~15 h |  |  |  |  |  |  | 
Nc1ncn([C@H]2C[C@H](O)[C@@H](CO)O2)c(=O)n1 [5-AdC, 5-aza-2′-deoxycytidine] |  |  |  | reactivation of MORT transcription; also recorded: increased MORT level | significant decrease | reactivation of MORT expression | significant decrease | reactivation of MORT expression | significant decrease | reactivation of MORT expression
